# From US8927463B2, “Sensitive high throughput method for DNA damage and repair” (priority 2013, dated 2015)
# Entries after “also recorded” stand apart in the source; their conditions may differ. Where two headings read alike, the source gives them in different places.
# Test system: dsDNA
# Assay: Real-time DNA melting assay (PicoGreen/ROX melting curves)
# Text: Components of this assay include 1) a reaction vessel free from DNase and RNase, 2) a dsDNA-specific dye, 3) a reference dye 4) dsDNA, and 5) the genotoxicant(s). […] As the sample is heated in the real-time thermocycler, the dsDNA melts becoming single-stranded. Single-stranded DNA no longer supports PicoGreen fluorescence, thus the relative amount of PicoGreen to ROX fluorescence declines proportionately to the loss of DNA base-pairing. As will be understood by the skilled artisan upon reading this disclosure, alternative fluorometric dyes or spectrophotometric dyes can be used in the method of the present invention.
# In one embodiment, the raw dsDNA-specific fluorescence is normalized to the corresponding reference fluorescence at each temperature point to correct for decreased dye fluorescence resulting directly from the increasing solution temperature. This normalized fluorescence is then graphed as a function of temperature to produce the melting curve. Initial fluorescence from this curve is used to determine the extent of double-strand breakage. The first derivative of this melting curve is then plotted and used to determine both the initial melting temperature and the melting rate across the entire temperature gradient. […] A schematic representation of the typical melting curves is shown in FIG. 1 wherein, with increasing pH, salinity, or temperature, DNA dissociation increases resulting in a decrease in relative fluorescence.
# The ability to detect DNA-damaging agents was first examined under conditions under which only the pharmaceutical agent was allowed to interact with the dsDNA.
# (§1) Samples were analyzed using an ABI 7300 real time thermocycler over a temperature range of 4° C. to 99° C. Data is presented as PicoGreen fluorescence normalized to ROX.
# as §1
# Samples were analyzed over a temperature range of 4° C. to 99° C. using an ABI 7300 real time thermocycler. Data is presented as PicoGreen fluorescence normalized to ROX. […] When single strand breaks are in close proximity, double strand breaks can result.
# [1] = dsDNA 1,000 ng/ml treated with increasing concentrations of compound, PicoGreen normalized to ROX, 4° C. to 99° C.
smiles,measurement,setting,value
CC[C@@]1(O)C(=O)OCc2c1cc1n(c2=O)Cc2cc3ccccc3nc2-1 [camptothecin],effect on DNA melting curves,"dsDNA 1,000 ng/ml treated with non-genotoxic concentrations, PicoGreen normalized to ROX, 4° C. to 99° C.",lack of effect; also recorded: does not alter DNA melting
C[C@]12CC[C@@H]3c4cc(O)c(O)cc4CC[C@H]3[C@@H]1CC[C@@H]2O [2-hydroxyestradiol],initial fluorescence,[1],increase in initial fluorescence
same,initial melting slope,[1],increase in initial melting slope
CC[C@H](c1ccc(O)cc1)[C@@H](CC)c1ccc(O)cc1 [hexestrol],initial melting temperature,,decrease in the initial melting temperature
O=C1C(=O)c2ccccc2-c2ccccc21 [phenanthrenequinone],initial melting temperature,"dsDNA 1,000 ng/ml treated with increasing concentrations of compound, PicoGreen fluorescence normalized to ROX, 4° C. to 99° C.",increase in the initial melting temperature
